Experimental data reported in patent US20210330611A1, “THERAPY FOR NEUROLOGICAL DISEASES/DISORDERS” (priority 2020, published 2021).
Structures can show the parent of a compound that is named as a salt.

Assays:
[1] = test system: LPS-induced microglia activation; assay: Image-based assay of LPS-induced microglia activation (HTS and dose response); type: cell-based, rat; conditions: primary microglia HTS, LPS stimulation, increased cell size (>800 μm^2) as marker of activation; for inhibition at 10 µM: Rattus norvegicus, Microglia, 48 h, read-out: LPS % inhibition
[2] = test system: fibrin-induced microglia activation; assay: Image-based assay of fibrin-induced microglia activation (HTS and dose response); type: cell-based, rat; conditions: primary microglia HTS, fibrin stimulation, increased cell size (>800 μm^2) as marker of activation; for inhibition at 10 µM: Rattus norvegicus, Microglia, read-out: Fibrin % inhibition
primary rat microglia [3] = assay: Cell toxicity (dead cells, size <150 μm2) in coated fibrin (cFib) assay; conditions: primary microglia HTS, fibrin stimulation; decreased size (<150 μm^2) as marker of toxicity;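 further: share of dead cells sized under 150 µm2 at 10 µM in fibrin-stimulated microglia HTS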
[4] = test system: fibrin- and LPS-induced microglia activation; assay: cells; type: cell-based, rat; conditions: quadrant by fibrin and LPS inhibition in HTS of 1907 compounds
primary rat microglia [5] = assay: Cell toxicity (dead cells, size <150 μm2) in LPS assay; conditions: primary microglia HTS, LPS stimulation; decreased size (<150 μm^2) as marker of toxicity

## CCN(CC)CCNC(=O)c1cc(Cl)c(N)cc1OC [Metoclopramide]
[1]
  inhibition at 10 µM: 12%
[2]
  inhibition at 10 µM: -2%
Primary rat microglia [3]
  Fibrin % cell toxicity: 1%
[4]
  Quadrant (FIG. 5b): Q4
Primary rat microglia [5]
  LPS % cell toxicity: 0%

## Cc1ccccc1N1C(=O)c2cc(S(N)(=O)=O)c(Cl)cc2NC1C (stereo not shown) [Metolazone]
[1]
  inhibition at 10 µM: 19%
[2]
  inhibition at 10 µM: -2%
Primary rat microglia [3]
  Fibrin % cell toxicity: 1%
[4]
  Quadrant (FIG. 5b): Q4
Primary rat microglia [5]
  LPS % cell toxicity: 0%

## COCCc1ccc(OCC(O)CNC(C)C)cc1 (stereo not shown) [Metoprolol]
[1]
  inhibition at 10 µM: 22%
[2]
  inhibition at 10 µM: 4%
Primary rat microglia [3]
  Fibrin % cell toxicity: 1%
[4]
  Quadrant (FIG. 5b): Q4
Primary rat microglia [5]
  LPS % cell toxicity: 0%

## COP(=O)(OC)C(O)C(Cl)(Cl)Cl (stereo not shown) [Metrifonate]
[1]
  inhibition at 10 µM: 8%
[2]
  inhibition at 10 µM: -34%
Primary rat microglia [3]
  Fibrin % cell toxicity: 0%
[4]
  Quadrant (FIG. 5b): Q4
Primary rat microglia [5]
  LPS % cell toxicity: 0%

## COc1ccc(C(=O)c2ccc(C)cc2)c(O)c1 [Mexeneone]
[1]
  LPS % inhibition: 9%
[2]
  Fibrin % inhibition: −8%
Primary rat microglia [3]
  Fibrin % cell toxicity: 1%
[4]
  Quadrant (FIG. 5b): Q4
Primary rat microglia [5]
  LPS % cell toxicity: 0%

## OCCN1C[C@H](O)[C@@H](O)[C@H](O)[C@H]1CO [Miglitol]
[1]
  inhibition at 10 µM: 13%
[2]
  inhibition at 10 µM: -9%
Primary rat microglia [3]
  Fibrin % cell toxicity: 0%
[4]
  Quadrant (FIG. 5b): Q4
Primary rat microglia [5]
  LPS % cell toxicity: 0%

## CCCCN1C[C@H](O)[C@@H](O)[C@H](O)[C@H]1CO [Miglustat]
[1]
  inhibition at 10 µM: 0%
[2]
  inhibition at 10 µM: -6%
Primary rat microglia [3]
  Fibrin % cell toxicity: 1%
[4]
  Quadrant (FIG. 5b): Q4
Primary rat microglia [5]
  LPS % cell toxicity: 0%

## CCCCCCCCCCCCCCCCOP(=O)([O-])OCC[N+](C)(C)C [Miltefosine]
[1]
  inhibition at 10 µM: 11%
[2]
  inhibition at 10 µM: -31%
Primary rat microglia [3]
  Fibrin % cell toxicity: 1%
[4]
  Quadrant (FIG. 5b): Q4
Primary rat microglia [5]
  LPS % cell toxicity: 0%

## Cc1cc(-c2ccccc2)nnc1NCCN1CCOCC1 [Minaprine]
[1]
  inhibition at 10 µM: 10%
[2]
  inhibition at 10 µM: -22%
Primary rat microglia [3]
  Fibrin % cell toxicity: 0%
[4]
  Quadrant (FIG. 5b): Q4
Primary rat microglia [5]
  LPS % cell toxicity: 0%

## O=C(NCCN1CCOCC1)c1ccc(Cl)cc1 [Moclobemide]
[1]
  inhibition at 10 µM: 14%
[2]
  inhibition at 10 µM: -6%
Primary rat microglia [3]
  Fibrin % cell toxicity: 1%
[4]
  Quadrant (FIG. 5b): Q4
Primary rat microglia [5]
  LPS % cell toxicity: 0%

## NC(=O)C[S+]([O-])C(c1ccccc1)c1ccccc1 (stereo not shown) [Modafinil]
[1]
  inhibition at 10 µM: 25%
[2]
  inhibition at 10 µM: -5%
Primary rat microglia [3]
  Fibrin % cell toxicity: 1%
[4]
  Quadrant (FIG. 5b): Q4
Primary rat microglia [5]
  LPS % cell toxicity: 0%

## CCOC(=O)[C@H](CCc1ccccc1)N[C@@H](C)C(=O)N1Cc2cc(OC)c(OC)cc2C[C@H]1C(=O)O [Moexipril]
[1]
  inhibition at 10 µM: 9%
[2]
  inhibition at 10 µM: -29%
Primary rat microglia [3]
  Fibrin % cell toxicity: 1%
[4]
  Quadrant (FIG. 5b): Q4
Primary rat microglia [5]
  LPS % cell toxicity: 1%

## CCOC(=O)CC(=O)N1CCSC1COc1ccccc1OC (stereo not shown) [Moguisteine]
[1]
  inhibition at 10 µM: 15%
[2]
  inhibition at 10 µM: -2%
Primary rat microglia [3]
  Fibrin % cell toxicity: 1%
[4]
  Quadrant (FIG. 5b): Q4
Primary rat microglia [5]
  LPS % cell toxicity: 0%

## Oc1ccc(OCc2ccccc2)cc1 [Monobenzone]
[1]
  inhibition at 10 µM: 16%
[2]
  inhibition at 10 µM: 7%
Primary rat microglia [3]
  Fibrin % cell toxicity: 1%
[4]
  Quadrant (FIG. 5b): Q4
Primary rat microglia [5]
  LPS % cell toxicity: 0%

## Cc1ccsc1/C=C/C1=NCCCN1C [Morantel Citrate]
[1]
  inhibition at 10 µM: 11%
[2]
  inhibition at 10 µM: -11%
Primary rat microglia [3]
  Fibrin % cell toxicity: 1%
[4]
  Quadrant (FIG. 5b): Q4
Primary rat microglia [5]
  LPS % cell toxicity: 0%

## N=C(N)/N=C(\N)N1CCOCC1 [Moroxydine Hydrochloride]
[1]
  inhibition at 10 µM: 4%
[2]
  inhibition at 10 µM: -22%
Primary rat microglia [3]
  Fibrin % cell toxicity: 1%
[4]
  Quadrant (FIG. 5b): Q4
Primary rat microglia [5]
  LPS % cell toxicity: 0%

## CO/N=C1\C[C@]2(C[C@@H]3C[C@@H](C/C=C(\C)C[C@@H](C)/C=C/C=C4\CO[C@@H]5[C@H](O)C(C)=C[C@@H](C(=O)O3)[C@]45O)O2)O[C@H](/C(C)=C/C(C)C)[C@H]1C [Moxidectin]
[1]
  inhibition at 10 µM: 14%
[2]
  inhibition at 10 µM: 1%
Primary rat microglia [3]
  Fibrin % cell toxicity: 0%
[4]
  Quadrant (FIG. 5b): Q4
Primary rat microglia [5]
  LPS % cell toxicity: 1%

## CC(=O)Oc1cc(C(C)C)c(OCCN(C)C)cc1C [Moxisylyte]
[1]
  inhibition at 10 µM: 3%
[2]
  inhibition at 10 µM: -22%
Primary rat microglia [3]
  Fibrin % cell toxicity: 0%
[4]
  Quadrant (FIG. 5b): Q4
Primary rat microglia [5]
  LPS % cell toxicity: 0%

## C/C(=C\C(=O)OCCCCCCCCC(=O)O)C[C@@H]1OC[C@H](C[C@@H]2O[C@H]2[C@@H](C)[C@H](C)O)[C@@H](O)[C@H]1O [Mupirocin]
[1]
  inhibition at 10 µM: 20%
[2]
  inhibition at 10 µM: 11%
Primary rat microglia [3]
  Fibrin % cell toxicity: 1%
[4]
  Quadrant (FIG. 5b): Q4
Primary rat microglia [5]
  LPS % cell toxicity: 0%

## CC(=O)N[C@H]1[C@H]([C@H](O)[C@H](O)CO)OC(O)(C(=O)O)C[C@@H]1O (stereo partly shown) [N-acetylneuramic Acid, Aceneuramic Acid]
[1]
  LPS % inhibition: 19%
[2]
  Fibrin % inhibition: −9%
Primary rat microglia [3]
  Fibrin % cell toxicity: 1%
[4]
  Quadrant (FIG. 5b): Q4
Primary rat microglia [5]
  LPS % cell toxicity: 1%

## COc1ccc2cc(CCC(C)=O)ccc2c1 [Nabumetone]
[1]
  inhibition at 10 µM: 15%
[2]
  inhibition at 10 µM: -13%
Primary rat microglia [3]
  Fibrin % cell toxicity: 1%
[4]
  Quadrant (FIG. 5b): Q4
Primary rat microglia [5]
  LPS % cell toxicity: 0%

## NC(=O)c1ccc[n+]([C@@H]2O[C@H](COP(=O)([O-])OP(=O)(O)OC[C@H]3O[C@@H](n4cnc5c(N)ncnc54)[C@H](O)[C@@H]3O)[C@@H](O)[C@H]2O)c1 [Nadide]
[1]
  inhibition at 10 µM: 5%
[2]
  inhibition at 10 µM: -14%
Primary rat microglia [3]
  Fibrin % cell toxicity: 1%
[4]
  Quadrant (FIG. 5b): Q4
Primary rat microglia [5]
  LPS % cell toxicity: 0%

## CCOc1ccc2ccccc2c1C(=O)N[C@@H]1C(=O)N2[C@@H]1SC(C)(C)[C@@H]2C(=O)O [Nafcillin Sodium]
[1]
  inhibition at 10 µM: 15%
[2]
  inhibition at 10 µM: -7%
Primary rat microglia [3]
  Fibrin % cell toxicity: 0%
[4]
  Quadrant (FIG. 5b): Q4
Primary rat microglia [5]
  LPS % cell toxicity: 0%

## CCN(CC)CCOC(=O)C(Cc1cccc2ccccc12)CC1CCCO1 (stereo not shown) [Nafronyl Oxalate]
[1]
  inhibition at 10 µM: 15%
[2]
  inhibition at 10 µM: 15%
Primary rat microglia [3]
  Fibrin % cell toxicity: 1%
[4]
  Quadrant (FIG. 5b): Q4
Primary rat microglia [5]
  LPS % cell toxicity: 0%

## CCn1cc(C(=O)O)c(=O)c2ccc(C)nc21 [Nalidixic Acid]
[1]
  inhibition at 10 µM: 13%
[2]
  inhibition at 10 µM: -1%
Primary rat microglia [3]
  Fibrin % cell toxicity: 1%
[4]
  Quadrant (FIG. 5b): Q4
Primary rat microglia [5]
  LPS % cell toxicity: 1%

## CC1CCCC(C)N1 (stereo not shown) [Nanofin]
[1]
  LPS % inhibition: 12%
[2]
  Fibrin % inhibition: 17%
Primary rat microglia [3]
  Fibrin % cell toxicity: 1%
[4]
  Quadrant (FIG. 5b): Q4
Primary rat microglia [5]
  LPS % cell toxicity: 0%

## c1ccc2c(CC3=NCCN3)cccc2c1 [Naphazoline]
[1]
  inhibition at 10 µM: 13%
[2]
  inhibition at 10 µM: -1%
Primary rat microglia [3]
  Fibrin % cell toxicity: 1%
[4]
  Quadrant (FIG. 5b): Q4
Primary rat microglia [5]
  LPS % cell toxicity: 1%

## COc1ccc2cc([C@H](C)CO)ccc2c1 [Naproxol]
[1]
  inhibition at 10 µM: 16%
[2]
  inhibition at 10 µM: -10%
Primary rat microglia [3]
  Fibrin % cell toxicity: 0%
[4]
  Quadrant (FIG. 5b): Q4
Primary rat microglia [5]
  LPS % cell toxicity: 0%

## C[C@@H]1C/C=C/C=C/C=C/C=C/[C@H](O[C@@H]2O[C@H](C)[C@@H](O)[C@H](N)[C@@H]2O)C[C@@H]2O[C@](O)(C[C@@H](O)C[C@H]3O[C@@H]3/C=C/C(=O)O1)C[C@H](O)[C@H]2C(=O)O [Natamycin]
[1]
  inhibition at 10 µM: 35%
[2]
  inhibition at 10 µM: -7%
Primary rat microglia [3]
  Fibrin % cell toxicity: 1%
[4]
  Quadrant (FIG. 5b): Q4
Primary rat microglia [5]
  LPS % cell toxicity: 0%
